The values below come from patent publication US11045509B2, “Tributyrin compositions and methods therefor” (Compound Solutions, Inc., priority 2019, dated 2021).

Format in all cases: in vivo, human
One assay relates to Bifidobacterium. Description: relative abundance of Bifidobacterium in stool before and after 3-week tributyrin study (16S rRNA). The settings on record: three volunteers, 300 mg tributyrin per day for 3 weeks, stool sample POST vs PRE, FIG. 1. The text has this:
(§1) The inventors recruited three volunteers who were asked to provide some basic anthropometric characteristics and lifestyle habits. All volunteer subjects (2 female and 1 male) were free of chronic disease and reported not having taken an antibiotic within the past six months. Body mass index (kg/m^2) analysis classified two of the subjects as “overweight” (BMI>25<30), and one as obese (BMI>30). Although activity habits varied, all of the subjects reported weekly participation in light-to-moderate physical activity, and relatively low caffeine intake (<200 mg/day) and alcohol intake (<3 drinks a week). Before the start of the 3-week study, stool samples were collected from each of the 3 volunteers using the commercially available UBiome Explorer kit. The collected stool samples were sent to Ubiome labs (San Francisco, Calif.) where DNA was extracted followed by 16S rRNA gene amplification for bacterial classification. The 3-week study involved each of the volunteers taking 300 milligrams (mg) of tributyrin per day for 3 weeks. Subjects were verbally instructed to maintain usual dietary and physical activity habits throughout the course of the study. At the end of the 3-week period, stool samples were collected following the same protocol, and sent for analysis. […]

The next assay concerns Faecalibacterium. Kind of assay: relative abundance of Faecalibacterium in stool before and after 3-week tributyrin study (16S rRNA). As to conditions: three volunteers, 300 mg tributyrin per day for 3 weeks, stool sample POST vs PRE, FIG. 2.
Text: as §1

Another assay deals with Lachnospira. Description: relative abundance of Lachnospira in stool before and after 3-week tributyrin study (16S rRNA). The settings on record: three volunteers, 300 mg tributyrin per day for 3 weeks, stool sample POST vs PRE, FIG. 3.
Text: as §1

For assay [1], the system named is Firmicutes to Bacteroidetes (F/B) ratio. Description: collective Firmicutes to Bacteroidetes (F/B) ratio in stool before and after 3-week tributyrin study. As to conditions: three volunteers, 300 mg tributyrin per day for 3 weeks, stool samples POST vs PRE, FIG. 4. Here is the method: With reference to FIG. 4, the collective ratio of firmicutes to bacteroidetes (F/B ratio) was measured in the stool samples of the three volunteer subjects before and after taking tributyrin daily for three weeks as described in the Examples. The firmicutes and bacteroidetes are each a phylum of bacteria making up the largest portion of the human gut microbiome. In particular the F/B ratio has been reported to be associated with metabolic factors and cardiorespiratory fitness. Durk et al., 2018, Int J Sport Nutr Exerc Metab, 29, 249-253. Accordingly, the inventors contemplate a method of increasing the F/B ratio in the gut of a mammal with the administration of a tributyrin-containing composition to the mammal at a dosage that effectively increases the F/B ratio in the gut of the mammal. […] As such, contemplated compositions are thought to not only selectively improve gut microflora, but also to enhance nutrient uptake. The inventors recruited three volunteers who were asked to provide some basic anthropometric characteristics and lifestyle habits. All volunteer subjects (2 female and 1 male) were free of chronic disease and reported not having taken an antibiotic within the past six months. Body mass index (kg/m^2) analysis classified two of the subjects as “overweight” (BMI>25<30), and one as obese (BMI>30). […]

As for `CCCC(=O)OCC(COC(=O)CCC)OC(=O)CCC` [tributyrin], the “increase in relative abundance of Bifidobacterium” value in the assay with Bifidobacterium is listed as 8,841%. For the same molecule, in the assay with Faecalibacterium, the “increase in relative abundance of Faecalibacterium” value worked out at 29%. Moreover, the “increase in relative abundance of Lachnospira” value in the assay with Lachnospira amounted to 114%. For the same molecule, the “increase of collective F/B ratio” value in assay [1] was “approximately 50%”.
